Consider seven molecules from US20170304369A1, “METHODS OF DIFFERENTIATING STEM CELLS INTO LIVER CELL LINEAGES” (Agency for Science, Technology and Research, priority 2014, published 2017).

One series concerns hPSC-derived LB cells. The experiment in a line: Hepatic progenitor specification from hPSC-derived LB cells (days 7-12), liver gene expression. How it is done: (§1) mTeSR1-grown hPSCs were cultured and differentiated as follows: • a) hPSCs cells were seeded at 1:12 as small clumps using Accutase (Millipore, Cat#SCR005) and Geltrex (Lifetech, Cat#A1413302). • b) Anterior Primitive Streak (day 1) was specified using Activin A (100 ng/ml), CHIR99021 (3 μM), PI-103 (50 nM) and Fgf2 (10 ng/ml) in serumless CDM2 basal medium for 24 hr. • c) Activin A (100 ng/ml) and DM3189 (250 nM) and PI-103 (50 nM) were added in the same basal medium for 24 hr to induce Definitive Endoderm (DE) (day 2). • d) DE was then patterned into PFG by using A83-01 (1 μM), RA (2 μM), BMP4 (30 ng/ml) and Fgf2 (10 ng/ml) in CDM KOSR basal media for another 24 hrs. • e) PFG was further differentiated to LB progenitors using Activin A (100 ng/ml), 8-bromo-CAMP (1 mM) and BMP4 (10 ng/ml) in CDM KOSR basal media for 3 days (day 4 to 6). • f) LB progenitors were treated with BMP4 (10 ng/ml), Oncostatin M (10 ng/ml), Dexamethasone ([…]), DAPT, C59 (1 μM) or RO4919097 (2 μM), forskolin ([…]), human recombinant insulin (10 μg/ml), ascorbic acid-2 phosphate (200 μg/ml), L-gluthathione ([…]) and amino acid concentrate and in IMDM/F12 media for the next 6 days (day 7 to 12) to induce hepatic progenitors. • g) Hepatic progenitors were treated with Dexamethasone (10 μM), RO4929097 (2 μM) or DAPT (10 μM), Forskolin (10 μM), human recombinant insulin (10 μg/ml), ascorbic acid-2 phosphate (200 μg/ml) in IMDM/F12 media for 6 days (day 13 to 18) to generate hepatocyte-like cells. Intra-Splenic Transplantation into FRG^−/− Mice
(§2) RNA was extracted using Zymo RNA extraction kit. RT-quantitative PCR was used to quantify gene expression. Primer sequences were designed by NCBI Primer Tool and primer specificity and linearity was tested before usage for gene expression analyses.
To identify the signals that regulate the progression of the LB progenitors from an ALB- to a more differentiated ALB+ state, multiple signaling pathways were systematically screened for their effects on ALB expression (including FGF, WNT, Notch, HGF, cAMP/PKA, TGFβ, and BMP).

Another series deals with hepatic progenitors. The experiment in a line: Treatment of hepatic progenitors (days 13-18), hepatocyte-like cell, periportal versus perivenous gene expression. In kind it is cell-based, human. To be noted: for expression of FAH, PAH, HGD, TAT, CPS1, ARG1, FBA, FBB and FBG: PKG antagonists.
The subject of the next series is hPSC-derived DE. The experiment in a line: Foregut specification: treatment of hPSC-derived DE (day 3), downstream gene expression by RT-qPCR. To be noted: for downstream LB gene expression (AFP, CEBPA, TBX3, HNF1B) / expression of MHG markers CDX2 and EVX1: 24 h during foregut specification; for HNF6, PROX1 and HEX expression: Wnt inhibition during foregut specification. In kind it is cell-based, human. The source says:
RT-quantitative PCR was used to quantify gene expression. […] During liver development, populations of definitive endoderm cells are first patterned along the anterior-posterior axis to form either the foregut or mid/hindgut. In the present invention the effects of signaling inhibition on the developmental competence of the foregut cells to give rise to the liver bud (LB) cells was examined. Competence is defined as the capacity of one stem cell or progenitor cell to differentiate into its daughter cell type. For example, the posterior foregut is competent when it could give rise to its daughter cell types such as the pancreatic endoderm and LB cells.
(In general: Real-time PCR tracks product formation cycle by cycle.)

Another series concerns PFG cells. The experiment in a line: Liver bud (LB) specification from posterior foregut, days 4-6, gene expression. In kind it is cell-based, human. How it is done:
as §1, §2
The signaling pathways, including Retinoic, Nodal/Activin, Bmp, PKA, FGF and Wnt signaling, were explored to determine if they could directly regulate LB specification.

Regarding “human recombinant insulin: activator of insulin signaling”, the “expression of ALB, CPS1 and CYP3A4” value in the series with hPSC-derived LB cells is “strongly enhanced”. In the series with hPSC-derived LB cells (days 7 to 12), the “expression of PAH, HGD, HPD, TAT, MAI, and FAH” value is “significantly increases”. In addition, the “tyrosine metabolic genes and xenobiotic metabolic genes such as CYP3A4” value in the series with hepatic progenitors was “continues to enhance”.

With `Cc1cc(-c2ccc(CC(=O)Nc3ccc(-c4cccnc4)cc3)cc2)ccn1` [C59, 2-(4-(2-methylpyridin-4-yl)phenyl)-N-(4-(pyridin-3-yl)phenyl)acetamide], in the series on hPSC-derived DE, the “downstream LB gene expression (AFP, CEBPA, TBX3, HNF1B)” value is recorded as “severely reduces”; the “expression of MHG markers CDX2 and EVX1” value is recorded as “reduces”; the “HNF6, PROX1 and HEX expression” value is “upregulated”. Besides, the “expression of ALB, CYP3A7” value in the series with hepatic progenitors is given as “promotes”.

Regarding Activin: activator of TGFβ signaling, the “later expression of ALB in subsequent differentiation” value in the series with PFG cells (10 ng/ml during LB specification) was “increases”. In the series with PFG cells (day 4 to 6), the “HNF4A, HNF1A, and TBX3 levels” value is listed as “increases”; the “LB expression (AFP and CEBPA)” value is “reduces”. Further, in the series with PFG cells (increasing the dose), the LB marker expression result is reported as “seems to reduce”. In addition, the “expression of ALB on day 13” value with PFG cells (treatment during LB specification (days 4-6)) is “enhances”. For the same molecule, the periportal genes entry in the series on hepatic progenitors is on record as “downregulation”.

`COC(=O)[C@@]1(OC)C[C@H]2O[C@]1(C)n1c3ccccc3c3c4c(c5c6ccccc6n2c5c31)C(=O)N(C)C4` [KT5823, (9S,10R,12R)-2,3,9,10,11,12-Hexahydro-10-methoxy-2,9-dimethyl-1-oxo-9,12-epoxy-1H-diindolo[1,2,3-fg:3′,2′,1′-kl]pyrrolo[3,4-i][1,6]benzodiazocine-10-carboxylic acid, methyl ester]: the “expression of FAH, PAH, HGD, TAT, CPS1, ARG1, FBA, FBB and FBG” value with hepatic progenitors is “upregulate”.

Consider `CC1=C(/C=C/C(C)=C\C=C\C(C)=C\C(=O)O)C(C)(C)CCC1` [9-Cis-RA, 3,7-Dimethyl-9-(2,6,6-trimethyl-1-cyclohexen-1-yl)nona-2E,4E,6Z,8E-tetraenoic acid], for which, in the series on hepatic progenitors, the “expression of CYP3A5, CYP3A7, CYP3A4, CYP2D1, CYP2E1, and CYP1A1” value was “enhance”; the “expression of periportal genes such as ARG1, OTC, ASL1 and CPS1” value is “reduces”.

In the case of “DKK1: Dickkopf 1, inhibitor of Wnt signaling”, in the series with hPSC-derived DE, the “downstream LB gene expression (AFP, CEBPA, TBX3, HNF1B)” value is on record as “severely reduces”; the “expression of MHG markers CDX2 and EVX1” value is recorded as “reduces”; the “HNF6, PROX1 and HEX expression” value was “upregulated”. The “expression of ALB, CYP3A7” value with hepatic progenitors is on record as “promotes”.

Consider `CC(=N)NCc1cccc(CN)c1.Cl.Cl` [1400 W dihydrochloride, N-[[3-(Aminomethyl)phenyl]methyl]-ethanimidamide dihydrochloride], for which the “expression of FAH, PAH, HGD, TAT, CPS1, ARG1, FBA, FBB and FBG” value in the series with hepatic progenitors is “upregulate”.
